Data on 19 compounds can be found in ChEMBL document CHEMBL2086274, “Synthesis, biological evaluation, and molecular docking of N-{3-[3-(9-methyl-9H-carbazol-3-yl)-acryloyl]-phenyl}-benzamide/amide derivatives as xanthine oxidase and tyrosinase inhibitors” (Bioorg Med Chem, 2012).

In data set [1] the target is T1, Tyrosinase (Mus musculus) (UniProt P11344).
T1 sequence (whole entry): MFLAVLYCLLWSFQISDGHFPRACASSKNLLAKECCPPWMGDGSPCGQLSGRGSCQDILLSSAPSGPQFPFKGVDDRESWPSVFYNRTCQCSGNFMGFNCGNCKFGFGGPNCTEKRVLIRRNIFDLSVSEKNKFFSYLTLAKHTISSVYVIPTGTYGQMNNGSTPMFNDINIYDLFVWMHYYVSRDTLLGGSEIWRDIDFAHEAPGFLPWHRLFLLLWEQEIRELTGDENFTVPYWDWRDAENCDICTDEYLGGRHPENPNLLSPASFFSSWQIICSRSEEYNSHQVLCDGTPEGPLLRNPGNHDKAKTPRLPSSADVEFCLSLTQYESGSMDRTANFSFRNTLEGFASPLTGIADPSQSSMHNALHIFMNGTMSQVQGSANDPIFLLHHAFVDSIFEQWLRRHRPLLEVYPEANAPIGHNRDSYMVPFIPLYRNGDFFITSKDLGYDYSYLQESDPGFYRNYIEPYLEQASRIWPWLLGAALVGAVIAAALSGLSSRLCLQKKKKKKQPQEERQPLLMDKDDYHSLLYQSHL
Briefly: Inhibition of tyrosinase in mouse B16F10 cells assessed as reduction of melanin production at 20 ug/ml after 72 hrs. Format: cell-based. As to conditions: B16-F10.

Data set [2] can be described thus: Cytotoxicity against mouse B16F10 cells assessed as cell viability at 20 ug/ml after 76 hrs by MTT assay. As to conditions: read-out: Activity. Format: cell-based, B16-F10. On the technique in general: Tetrazolium dyes change colour on reduction, which living cells bring about.
In data set [3] the target is Xanthine dehydrogenase/oxidase (Bos taurus, UniProt P80457).
Sequence of Xanthine dehydrogenase/oxidase (P80457 whole entry): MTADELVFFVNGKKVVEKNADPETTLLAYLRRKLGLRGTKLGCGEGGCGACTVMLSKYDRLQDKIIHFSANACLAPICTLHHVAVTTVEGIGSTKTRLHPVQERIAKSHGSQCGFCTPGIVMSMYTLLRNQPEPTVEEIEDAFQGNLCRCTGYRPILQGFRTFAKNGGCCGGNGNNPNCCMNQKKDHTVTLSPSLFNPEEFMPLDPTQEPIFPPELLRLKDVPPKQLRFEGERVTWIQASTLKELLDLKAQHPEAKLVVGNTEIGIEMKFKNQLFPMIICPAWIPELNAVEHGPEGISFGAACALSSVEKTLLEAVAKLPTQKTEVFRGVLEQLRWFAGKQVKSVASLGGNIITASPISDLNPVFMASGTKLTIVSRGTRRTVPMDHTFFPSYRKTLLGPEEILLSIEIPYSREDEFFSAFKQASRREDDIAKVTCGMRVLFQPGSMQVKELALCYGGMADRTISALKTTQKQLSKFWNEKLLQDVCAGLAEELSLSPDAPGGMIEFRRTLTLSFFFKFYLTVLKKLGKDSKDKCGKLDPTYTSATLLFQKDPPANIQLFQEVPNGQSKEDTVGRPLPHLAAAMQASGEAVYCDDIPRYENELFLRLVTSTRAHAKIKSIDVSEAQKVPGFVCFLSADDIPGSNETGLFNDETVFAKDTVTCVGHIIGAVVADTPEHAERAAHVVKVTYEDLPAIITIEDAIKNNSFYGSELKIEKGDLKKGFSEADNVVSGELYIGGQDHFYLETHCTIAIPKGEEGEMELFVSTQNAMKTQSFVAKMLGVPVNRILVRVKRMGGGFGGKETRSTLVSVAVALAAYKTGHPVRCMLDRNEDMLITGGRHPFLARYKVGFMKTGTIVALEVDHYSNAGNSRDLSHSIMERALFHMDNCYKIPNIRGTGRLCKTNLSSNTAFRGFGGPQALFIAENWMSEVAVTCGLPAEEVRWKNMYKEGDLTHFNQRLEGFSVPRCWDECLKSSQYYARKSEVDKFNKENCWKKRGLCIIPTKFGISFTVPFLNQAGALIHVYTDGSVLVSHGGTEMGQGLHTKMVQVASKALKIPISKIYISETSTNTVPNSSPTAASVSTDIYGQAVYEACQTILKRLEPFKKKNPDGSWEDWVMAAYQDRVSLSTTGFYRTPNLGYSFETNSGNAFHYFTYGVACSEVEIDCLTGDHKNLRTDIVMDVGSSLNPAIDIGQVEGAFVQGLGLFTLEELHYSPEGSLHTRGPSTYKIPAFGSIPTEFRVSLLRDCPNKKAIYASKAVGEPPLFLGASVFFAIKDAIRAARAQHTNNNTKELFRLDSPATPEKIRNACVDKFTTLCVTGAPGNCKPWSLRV
Description: Inhibition of bovine milk XO assessed as decrease in uric acid formation after 5 mins by UV-spectrophotometric analysis
The target of data set [4] is T2, Tyrosinase (Agaricus bisporus, UniProt O42713).
T2 sequence (O42713 whole entry): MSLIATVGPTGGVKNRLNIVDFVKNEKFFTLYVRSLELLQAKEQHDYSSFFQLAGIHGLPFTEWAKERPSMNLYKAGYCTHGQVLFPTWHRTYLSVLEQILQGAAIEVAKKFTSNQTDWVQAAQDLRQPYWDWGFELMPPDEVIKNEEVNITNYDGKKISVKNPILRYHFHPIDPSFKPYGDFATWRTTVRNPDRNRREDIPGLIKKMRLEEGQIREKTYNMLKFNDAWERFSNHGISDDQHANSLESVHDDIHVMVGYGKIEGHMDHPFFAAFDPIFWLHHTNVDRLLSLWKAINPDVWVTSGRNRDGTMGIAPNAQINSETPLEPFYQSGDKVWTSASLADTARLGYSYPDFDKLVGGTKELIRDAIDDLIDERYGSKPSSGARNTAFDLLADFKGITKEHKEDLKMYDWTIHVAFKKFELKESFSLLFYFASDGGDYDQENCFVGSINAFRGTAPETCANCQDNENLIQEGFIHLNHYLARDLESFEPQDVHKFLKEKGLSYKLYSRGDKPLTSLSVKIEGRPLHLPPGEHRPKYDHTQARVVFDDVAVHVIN
Description: Inhibition of mushroom tyrosinase using L-tyrosine as substrate after 5 mins by UV-spectrophotometric analysis

For data set [5], the target named is T2, Tyrosinase. The source holds these as a separate data set.
Description: Inhibition of mushroom tyrosinase using L-DOPA as substrate after 5 mins by UV-spectrophotometric analysis
In data set [6] the target is T2, Tyrosinase. The experiment in a line: Competitive inhibition of mushroom tyrosinase using L-DOPA as substrate after 5 mins by Lineweaver-Burk plot analysis.

Usually inhibition stands for the share of the control response that was lost under treatment. The term IC50 denotes the midpoint of a concentration-inhibition curve. A higher IC50 goes with weaker potency in that assay. `Cn1c2ccccc2c2cc(/C=C/C(=O)c3cccc(NC(=O)c4cccc(Cl)c4)c3)ccc21`: the inhibition in data set [1] is 29.4%. Also, in data set [2], the viability at 76 h, 20 ug/ml stood at 80.5%. Also, the IC50 in data set [3] is 4.4 µM; on Tyrosinase [4], 48.1 µM; against Tyrosinase [5], 56.5 µM.
For the compound `Cn1c2ccccc2c2cc(/C=C/C(=O)c3cccc(NC(=O)c4ccc(Cl)cc4)c3)ccc21`, in data set [1], the inhibition came to 36.1%. In addition, the viability at 76 h, 20 ug/ml in data set [2] was found to be 81.1%. The IC50 was found to be 5.6 µM in data set [3], 17.5 µM against Tyrosinase [4] and 15.1 µM against Tyrosinase [5].
In the case of `Cn1c2ccccc2c2cc(/C=C/C(=O)c3cccc(NC(=O)c4ccccc4F)c3)ccc21`, the inhibition in data set [1] worked out at 40.5%. The viability at 76 h, 20 ug/ml in data set [2] amounted to 84.5%. Also, the results for the IC50 (in data set [3]; on Tyrosinase [4]; at Tyrosinase [5]) were 79.5 µM, 18.2 µM and 15.2 µM, respectively.
Take `Cn1c2ccccc2c2cc(/C=C/C(=O)c3cccc(NC(=O)c4ccc(C(C)(C)C)cc4)c3)ccc21`: the inhibition in data set [1] turned out to be 11.6%. Also, in data set [2], the viability at 76 h, 20 ug/ml worked out at 84%. Moreover, the IC50 is 57.1 µM in data set [3], greater than 100 µM against Tyrosinase [4] and greater than 100 µM at Tyrosinase [5].
With `Cn1c2ccccc2c2cc(/C=C/C(=O)c3cccc(NC(=O)/C=C/c4ccccc4)c3)ccc21`, the inhibition in data set [1] is 15.9%. In addition, the viability at 76 h, 20 ug/ml in data set [2] came out at 81%. The IC50 in data set [3] amounted to 5.1 µM; against Tyrosinase [4], 85.2 µM; at Tyrosinase [5], 78.2 µM.
In the case of `Cn1c2ccccc2c2cc(/C=C/C(=O)c3cccc(NC(=O)c4cccc(Br)c4)c3)ccc21`, in data set [1], the inhibition came to 10.2%. In addition, the viability at 76 h, 20 ug/ml in data set [2] was 78.9%. For the same compound, the IC50 was 88.2 µM in data set [3], greater than 100 µM against Tyrosinase [4] and greater than 100 µM against Tyrosinase [5].
Consider `Cn1c2ccccc2c2cc(/C=C/C(=O)c3cccc(NC(=O)c4ccco4)c3)ccc21`, for which the inhibition in data set [1] amounted to 10.7%. Besides, the viability at 76 h, 20 ug/ml in data set [2] worked out at 86.6%. The results for the IC50 (in data set [3]; against Tyrosinase [4]; against Tyrosinase [5]) were greater than 100 µM, 46.5 µM and 60.3 µM, respectively.
On to `Cc1ccc(C(=O)Nc2cccc(C(=O)/C=C/c3ccc4c(c3)c3ccccc3n4C)c2)cc1`, for which the inhibition in data set [1] was 25.4%. Moreover, the viability at 76 h, 20 ug/ml in data set [2] stood at 82.7%. Besides, the IC50 in data set [3] was 5.3 µM; at Tyrosinase [4], 15.1 µM; on Tyrosinase [5], 15.2 µM.
Take `Cn1c2ccccc2c2cc(/C=C/C(=O)c3cccc(NC(=O)c4cccs4)c3)ccc21`: the inhibition in data set [1] stood at 12.8%. The viability at 76 h, 20 ug/ml in data set [2] worked out at 82.1%. Also, the IC50 in data set [3] is greater than 100 µM; against Tyrosinase [4] it was 62.4 µM; against Tyrosinase [5], 71.9 µM.
For `Cc1ccccc1C(=O)Nc1cccc(C(=O)/C=C/c2ccc3c(c2)c2ccccc2n3C)c1`, in data set [1], the inhibition amounted to 8.1%. The viability at 76 h, 20 ug/ml in data set [2] was found to be 60.9%. The IC50 (in data set [3]; at Tyrosinase [4]; on Tyrosinase [5]) was greater than 100 µM in each case.
Consider `CC(=O)Nc1cccc(C(=O)/C=C/c2ccc3c(c2)c2ccccc2n3C)c1`, for which the inhibition in data set [1] came to 15.6%. Besides, in data set [2], the viability at 76 h, 20 ug/ml worked out at 80.6%. Besides, the IC50 in data set [3] was greater than 100 µM; at Tyrosinase [4] it was 80.2 µM; at Tyrosinase [5], 77.5 µM.
Turning to `Cc1cccc(C(=O)Nc2cccc(C(=O)/C=C/c3ccc4c(c3)c3ccccc3n4C)c2)c1`, the inhibition in data set [1] is 21.7%. Also, in data set [2], the viability at 76 h, 20 ug/ml was 83.6%. Moreover, the values for the IC50 (in data set [3]; on Tyrosinase [4]; at Tyrosinase [5]) were 20.7 µM, 35.2 µM and 29.3 µM, respectively.
`Cn1c2ccccc2c2cc(/C=C/C(=O)c3cccc(NC(=O)c4cccc(C(F)(F)F)c4)c3)ccc21`: the inhibition in data set [1] was found to be 30.1%. For the same compound, the viability at 76 h, 20 ug/ml in data set [2] is 80.1%. In addition, the IC50 in data set [3] stood at 5.1 µM; against Tyrosinase [4], 65.2 µM; against Tyrosinase [5], 75 µM.
On to `Cn1c2ccccc2c2cc(/C=C/C(=O)c3cccc(NC(=O)c4ccccc4Cl)c3)ccc21`, for which the inhibition in data set [1] is 9.7%. The viability at 76 h, 20 ug/ml in data set [2] was 72%. The IC50 in data set [3] was 30.3 µM; against Tyrosinase [4], greater than 100 µM; on Tyrosinase [5] it was greater than 100 µM.
Regarding `Cn1c2ccccc2c2cc(/C=C/C(=O)c3cccc(NC(=O)C4CC4)c3)ccc21`, the inhibition in data set [1] worked out at 30%. Besides, the viability at 76 h, 20 ug/ml in data set [2] is 79.5%. For the same compound, the IC50 was found to be 4.3 µM in data set [3], 80.2 µM against Tyrosinase [4] and 74.5 µM against Tyrosinase [5].
As usually defined, the Ki is the equilibrium dissociation constant of an inhibitor or competing ligand from its target. The low end stands for higher affinity, the high end for lower affinity. As for `Cn1c2ccccc2c2cc(/C=C/C(=O)c3cccc(NC(=O)c4ccccc4)c3)ccc21`, the Ki on Tyrosinase [6] is 11.8 µM. Moreover, the inhibition in data set [1] was 42.5%. In addition, the viability at 76 h, 20 ug/ml in data set [2] was 86.7%. The IC50 turned out to be 42.7 µM in data set [3], 14 µM against Tyrosinase [4] and 15.1 µM on Tyrosinase [5].
With `Cn1c2ccccc2c2cc(/C=C/C(=O)c3cccc(NC(=O)c4ccc(F)cc4)c3)ccc21`, the inhibition in data set [1] came to 24%. In addition, in data set [2], the viability at 76 h, 20 ug/ml was found to be 88.7%. The IC50 came to 25.8 µM in data set [3], 15.1 µM against Tyrosinase [4] and 16.5 µM at Tyrosinase [5].
Regarding `Cn1c2ccccc2c2cc(/C=C/C(=O)c3cccc(NC(=O)c4cccc(F)c4)c3)ccc21`, the inhibition in data set [1] amounted to 20.6%. Also, the viability at 76 h, 20 ug/ml in data set [2] worked out at 83.9%. In addition, the IC50 in data set [3] came out at 4.5 µM; on Tyrosinase [4], 35.2 µM; on Tyrosinase [5], 42 µM.
Taken in the same sequence, the figures for `Cn1c2ccccc2c2cc(/C=C/C(=O)c3cccc(N)c3)ccc21` were 20.1%, 76.4%, 48.5 µM, 48.2 µM and 50.5 µM.
